Columns and labels:
[1] = Solubility in aqueous solutions; format: physicochemical
[2] = In vitro dephosphorylation by brain homogenate (inorganic phosphate release); format: in vitro ADME, mouse; settings: positive control substrate, 1.5 mg mouse-brain homogenate
Method: Potential dephosphorylation of CLR01 was analyzed by incubating 100 nmol CLR01 with 0.08 units of alkaline phosphatase (ALP; calf intestinal alkaline phosphatase, Promega, Madison, Wisconsin) for 60 min at 60°C. One enzymatic unit is defined as the amount of enzyme required for catalyzing the hydrolysis of 1 μmol of p-nitrophenylphosphate per minute. p-Nitrophenylphosphate disodium salt at 5–50 nmol (Fisher, Waltham, Massachusetts) was used for generation of a standard curve. The amount of inorganic phosphate generated was measured spectrophotometrically using an EnzChek Phosphate Assay kit (Life Technologies, Carlsbad, California) according to the manufacturer’s instructions on a DU-640 spectrophotometer (Beckman Coulter, Brea, California) at λ = 360 nm. Baseline values were subtracted from readings and compared to the standard curve resulting from serial ALP reactions to calculate the amount of inorganic phosphate. Similarly, potential dephosphorylation of CLR01 by brain homogenates was measured. For these experiments, one brain hemisphere was homogenized by sonication in the presence of cOmplete protease-inhibitor cocktail (Roche, Penzberg, Germany). Protein concentration was measured using a BCA Protein Assay Kit (Pierce, Rockford, Illinois). […]

Compound	Solubility in aqueous solutions [1]	Dephosphorylation by brain homogenate, % of the activity of 0.8 enzymatic units of ALP [2]
O=P(O)(O)Oc1c2c(c(O)c3c1C1CC3c3cc4c(cc31)C1CC4c3ccccc31)C1CC2c2cc3c(cc21)C1CC3c2ccccc21 [monophosphate metabolite]	soluble at millimolar concentrations	
O=[N+]([O-])c1ccc(OP(=O)(O)O)cc1 [p-nitrophenylphosphate, reference compound]		99 - 130%

Reference: publication PMC3996151, “Safety and pharmacological characterization of the molecular tweezer CLR01 – a broad-spectrum inhibitor of amyloid proteins’ toxicity” (BMC Pharmacology & Toxicology, 2014)
